Results published in patent US8877946B2, “Benzylidene-indolinone compounds and their medical use” (National University of Singapore, priority 2011, dated 2014).
Values after ≈ are worked out from the molar mass of the structure shown. Like-named read-outs stand apart in the source and are kept apart here.

What was measured:
HuH7 cells = test: MTT antiproliferative (growth inhibition) assay on HuH7 cells; format: cell-based, human; details: Homo sapiens, Huh-7, MTT
Summary of the method: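 Cells were exposed to compound for 72 h at 37° C, 5% CO2, with 0.5% v/v DMSO (1% if poorly soluble), then given MTT for 3 h. Formazan was dissolved in DMSO/Sorenson buffer and absorbance read at 570 nm; IC50 from sigmoidal fits of % viability versus log concentration.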

Hep G2 = test: MTT antiproliferative assay on Hep G2 cells; format: cell-based; details: Homo sapiens, HepG2, 72 h
From the text: (§1) MTT was purchased from DUCHEFA Biochemie ([…]). Sunitinib, and sodium dodecyl sulfate, bovine serum albuminwere obtained from Sigma Aldrich (Singapore). Sorafenib was purchase from Ontario Chem. Fetal bovine serum (FBS) was obtained from Invitrogen. Human hepatocellular carcinoma cells (HuH-7 and Hep G2), and human diploid fibroblast strain (IMR 90). HuH7 was obtained as gifts from Dr Ho Han Kiat, Department of Pharmacy, NUS. IMR90 and Hep G2 were purchased from American Type Culture Collection (ATCC). HuH-7 cells were cultured in DMEM (Dulbecco's Modified Eagle Medium, high glucose) with 10% v/v fetal bovine serum (FBS), 100 mg/L penicillin G and 100 mg/L streptomycin. IMR 90 cell were cultured in EMEM (Eagle's Minimum Essential Medium), with 10% v/v FBS and 100 mg/L penicillin G and 100 mg/L streptomycin. The cells were sub-cultured when HuH7 or Hep G2 reached a density of 70-80×10^5 cell/T75 flask, and IMR 90 reached 20×10^5 cell/T75 flask. Cells were used within 2-10 passages for viability experiments.
(§2) The anti-proliferative activity of the test compounds were determined by the MTT assay. An aliquot (200 μL, 3×10^4 cells/mL for HuH7, 3.75×10^4 cells/mL for Hep G2, and 2×10^4 cells/mL for IMR 90) of medium was added to each well of the microtitre plate. […] The existing medium was removed from each well and replaced by fresh medium (200 μL) containing a known concentration of test compound. The final concentration of DMSO in each well was maintained at 0.5% v/v. (1% v/v was also utilized if the compounds were not soluble) The test compounds were incubated with the cells for another 72 h at 37 deg C., 5% CO2. The medium was then removed from the well and replaced with FBS free medium (200 μL) and MTT (50 μL of 2 mg/mL solution in phosphate buffer saline, pH 7.4). The phosphate buffer saline comprises 10 mM of potassium phosphate and 137 mM sodium chloride. After incubation (3 h) at 37 deg C., 5% CO2, the supernatant was removed and a solution of 200 μL DMSO and 25 μL Sorenson buffer (0.1 M glycine, 0.1 M sodium chloride, adjusted to pH 10.5 with 0.1 M sodium hydroxide) was added to dissolve the formazan crystals in each well. Vehicle control were cells grown in 1% v/v DMSO/Medium for 72 h, 37 deg C., 5% CO2 while blank controls were wells that contained only 200 μL DMSO and 25 μL Sorenson buffer. Absorbances were measured at 570 nm on a microplate reader (Tecan, Infinite 200). The viability of cells at a given concentration of test compound was determined from the expression:
(§3) [formula] where abs_compound=absorbance of wells containing cells and test compound, abs_vehicle (Not the same as above. Change to abs_vehicle)=absorbance of vehicle control and abs_blank=absorbance of blank control.
(§4) Each concentration of test compound was evaluated at least 3 times on separate occasions, and two different stock solution were used. The IC50 value (concentration that inhibited 50% of cell growth) was determined from the sigmoidal curve obtained by plotting percentage viability versus logarithmic concentration of test compound using GraphPad Prism 5 (San Diego, USA).

IMR 90 = test: MTT antiproliferative assay on non-malignant IMR 90 fibroblasts; format: cell-based; details: non-malignant human lung fibroblast IMR 90, MTT, 72 h
From the text: as §1, §2, §3, §4

AFP mRNA = test: Determination of AFP mRNA levels by quantitative real-time PCR in HuH7 cells; format: cell-based, human; details: 10 μM, 24 h, FIG. 1
From the text: The primer sequences were: […] reverse); [NT] (Human GADPH forward); [NT] (Human GADPH reverse).

CYP1A1 = test: EROD assay, induction of CYP1A1 activity in HuH7 cells; format: cell-based, human; details: for induction of CYP450 (CYP1A1, EROD) activity: broad range of concentrations spanning growth inhibitory concentrations, FIG. 2
From the text: The induction of CYP1A1 activity was monitored by the 7-ethoxyresorufin O-deethylase (EROD) assay. EROD is a CYP1A1 enzyme and induction of its activity would result in the formation of more resorufin, a fluorescent compound. By monitoring resorufin levels in cells that are exposed to test compound and comparing the levels with those in untreated cells, it is possible to identify compounds that induce EROD activity.
Readings were taken at λexcitation of 530 nm and λemission of 590 nm on a fluorometer (Name the plate reader). Background fluorescence of the test compound was determined at the same wavelengths to take into account its contribution to the observed readings. Readings of “blank” wells that contained only media and “control” wells with only HuH7 cells in media (with 1% DMSO) were also determined. β-napthoflavone (BNF), a known inducer of CYP1A1 activity (give ref) was used as a positive control. The extent to which EROD activity was induced is given by the expression: Degree of induction=(FCells+Test Compound−FBlank)/(FControl−FBlank)
Where Fcells+test compound=fluorescence of wells containing treated cells; FBlank=fluorescence of well containing media only; FControl=fluorescence readings of wells containing untreated cells. The test compounds were not fluorescent at the excitation and emission wavelengths used in this assay. Two separate determinations were made for each concentration of test compound.

phospho-STAT3 (Tyr 705) = test: Detection of phosphorylated STAT3 by immunoblot in HepG2; format: cell-based, human; details: FIG. 3
Protocol: Rabbit polyclonal antibodies to STAT3 was obtained from Santa Cruz Biotechnology (Santa Cruz, Calif.), and rabbit monoclonal antibodies against phospho-STAT3 (Tyr 705) were purchased from Cell Signaling Technology (Beverly, Mass.).
For detection of phopho-STAT 3 and STAT 3, treated whole-cell extracts were lysed in lysis buffer (20 mM Tris (pH 7.4), 250 mM NaCl, 2 mM EDTA (pH 8.0), 0.1% Triton X-100, 0.01 mg/ml aprotinin, 0.005 mg/ml leupeptin, 0.4 mM PMSF, and 4 mM NaVO4). Lysates were then spun at 14,000 rpm for 10 min to remove insoluble material and resolved on a 7.5% SDS gel. After electrophoresis, the proteins were electrotransferred to a nitrocellulose membrane, blocked with 5% nonfat milk, and probed with anti-phospho-STAT 3 and anti-STAT 3 antibodies (1:1,000) overnight at 4° C. The blot was washed, exposed to HRP-conjugated secondary antibodies for 1 hr, and finally examined by chemiluminescence (ECL; GE Healthcare, Little Chalfont, Buckinghamshire, UK).

[1] = Aqueous solubility on Multiscreen Solubility filter plates; format: physicochemical; details: aqueous solution on Multiscreen Solubility filter plates, aqueous buffer, kinetic from dmso stock, mean of 3 determinations; for solubility at 3 h: pH 7.4, agitation time 3 h; for solubility at 24 h: pH 7.4, agitation time 24 h
Protocol: (§5) Solubility and PAMPA permeability (Pe) are important physicochemical indicators of drug-like character. Determination of aqueous solubility was carried out on Multiscreen® Solubility filter plates (Millipore-MSSLBPC10) from Millipore Corporation (MA, USA). The protocol (PC2445EN00, Millipore Corporation) was followed. Pe determinations were carried out on MultiScreen-IP PAMPA assay (donor) plates (MAIPNTR10) and MultiScreen Receiver Plates (MATRNPS50) from Millipore Corporation (USA) with 1% lecithin (L-α-phosphatidylcholine from lyophilized powder of egg yolk, Sigma Aldrich, USA) in dodecane (ReagentPlus®, Sigma Aldrich, USA) as lipid barrier.

PAMPA permeability (Pe) = format: physicochemical; details: for Pe (×10^−6 cm/s): 1% lecithin in dodecane, mean of 3 determinations
Protocol: as §5

[2] = 72 h (Table 9), read-out: IC50 (μM) HuH7
[3] = 72 h incubation, mean and SD of 3 or more independent determinations (Tables 1-8), read-out: IC 50

| SMILES | IC50 (HuH7 cells; [2]) [µM] | IC50 (HuH7 cells; [3]) [µM] | IC50 (Hep G2) [µM] | IC50 (IMR 90) [µM] | effect on AFP mRNA levels (AFP mRNA) | induction of EROD activity at 0.05 μM (CYP1A1; 0.05 μM, declined at higher concentrations) | induction of CYP450 (CYP1A1, EROD) activity (CYP1A1) | effect on p-STAT3 levels (constitutive STAT3 activation) (phospho-STAT3 (Tyr 705)) | solubility at 3 h [1] [µM] | solubility at 24 h [1] [µM] | Pe (×10^−6 cm/s) (PAMPA permeability (Pe); pH 7.4, 6 h) | Pe (×10^−6 cm/s) (PAMPA permeability (Pe); pH 7.4, 16 h) | decline of Pe with time (PAMPA permeability (Pe); 6 h to 16 h) |
| --- | --- | --- | --- | --- | --- | --- | --- | --- | --- | --- | --- | --- | --- |
| CN1C(=O)/C(=C/c2cccc(C(F)(F)F)c2)c2ccc(Cl)cc21 [Compound 1-10, (E) 6-Chloro-1-methyl-3-(3-trifluoromethyl-benzylidene)-1,3-dihydro-indol-2-one, reference compound] | 0.46 ± 0.06 | 0.46 ± 0.06 | 0.94 ± 0.18 | 9.23 ± 0.88 | reduced AFP mRNA by almost half | unusual (but reproducible) induction | did not induce CYP450 activity | did not | – | – | – | – | – |
| CNS(=O)(=O)c1cccc(/C=C2/C(=O)Nc3cc(Cl)ccc32)c1 [Compound 1-18, (E)-3-(6-Chloro-2-oxo-1,2-dihydro-indol-3-ylidenemethyl)-N-methyl-benzenesulfonamide] | 0.54 ± 0.06 | 0.54 ± 0.06 | 3.99 ± 0.43 | 2.1 | no significant change in AFP mRNA levels | – | did not induce CYP450 activity | reduced p-STAT3 levels | 8.85 (≈ 3.09 µg/mL) | 2.28 (≈ 0.795 µg/mL) | 18.3 ×10^−6 cm/s | 12.3 ×10^−6 cm/s | – |
| O=C1Nc2cc(F)ccc2/C1=C\c1ccccc1F [Compound 3-2, (E)-6-Fluoro-3-(2-fluoro-benzylidene)-1,3-dihydro-indol-2-one] | 0.91 ± 0.15 | 0.91 ± 0.15 | 1.82 ± 0.63 | 2.06 ± 0.33 | – | – | – | – | – | – | – | – | – |
| CNS(=O)(=O)c1cccc(/C=C2/C(=O)Nc3cc(F)ccc32)c1 [Compound 3-10, (E)-3-(6-Fluoro-2-oxo-1,2-dihydro-indol-3-ylidenemethyl)-N-methyl-benzenesulphonamide] | 0.48 ± 0.01 | 0.48 ± 0.01 | 4.4 ± 0.43 | 10.4 ± 0.23 | – | – | did not induce CYP450 activity | – | 37.6 (≈ 12.5 µg/mL) | 6.32 (≈ 2.1 µg/mL) | 12.9 ×10^−6 cm/s | 5.95 ×10^−6 cm/s | ½ |
| CNS(=O)(=O)c1cccc(/C=C2/C(=O)Nc3ccc(F)cc32)c1 [Compound 4-16, (E)-3-(5-Fluoro-2-oxo-1,2-dihydro-indol-3-ylidenemethyl)-N-methyl-benzenesulphonamide] | 1.18 ± 0.02 | 1.18 ± 0.02 | 9.11 ± 0.32 | 9.92 ± 0.57 | – | – | – | – | – | – | – | – | – |
| O=C1Nc2ccc(F)c(F)c2/C1=C/c1cccc(C(F)(F)F)c1 [Compound 6-6, (Z)-4,5-Difluoro-3-(3-trifluoromethyl-benzylidene)-1,3-dihydro-indol-2-one] | 0.54 ± 0.07 | 0.54 ± 0.07 | 0.96 ± 0.11 | 8.1 ± 0.73 | reduced levels to almost the same extent as 1-10 | – | did not induce CYP450 activity | did not | – | – | – | – | – |
| O=C1Nc2cc(F)c(F)cc2/C1=C\c1cccc(C(F)(F)F)c1 [Compound 7-6, (E)-5,6-Difluoro-3-(3-trifluoromethyl-benzylidene)-1,3-dihydro-indol-2-one] | 0.82 ± 0.2 | 0.82 ± 0.2 | 0.69 ± 0.02 | 8.53 ± 0.6 | – | – | – | – | – | – | – | – | – |
| CNC(=O)c1cc(Oc2ccc(NC(=O)Nc3ccc(Cl)c(C(F)(F)F)c3)cc2)ccn1 [Sorafenib, reference compound] | 5.35 ± 0.49 | – | 5.6 ± 0.21 | 11 ± 1.72 | – | – | – | – | – | – | – | – | – |
| CCN(CC)CCNC(=O)c1c(C)[nH]c(/C=C2\C(=O)Nc3ccc(F)cc32)c1C [sunitinib, reference compound] | 5.6 ± 0.12 | – | 5.07 ± 0.07 | 6.32 ± 1.24 | – | – | – | – | – | – | – | – | – |
